Measurements published in US20130030017A1, “QUINOLINE DERIVATIVES AS ANTIBACTERIAL AGENTS” (priority 2005, published 2013).
Converted amounts (≈) assume the structure as drawn.

Legend:
Format in all cases: cell-based
[1] = system: Enterococcus faecalis (ATCC29212); assay: Microtitre plate assay, IC90 determination (EFA 29212); conditions: 90% inhibitory concentration for bacterial growth, 37° C., resazurin fluorescence; for IC90 EFA 29212: 24 hours; for IC90: Enterococcus faecalis, ATCC29212, 24 h
Experimental: (§1) The bacteria used in this study were grown overnight in flasks containing 100 ml Mueller-Hinton Broth (Becton Dickinson—cat. no. 275730) in sterile de-ionized water, with shaking, at 37° C. Stocks (0.5 ml/tube) were stored at −70° C. until use. Bacteria titrations were performed in microtiter plates and colony forming units (CFUs) were determined. In general, an inoculum level of approximately 100 CFUs was used for susceptibility testing.
(§2) Flat-bottom, sterile 96-well plastic microtiter plates were filled with 180 μl of sterile deionized water, supplemented with 0.25% BSA. Subsequently, stock solutions (7.8× final test concentration) of compounds were added in 45 μl volumes in column 2 Serial five-fold dilutions (45 μl in 180 μl) were made directly in the microtiter plates from column 2 to reach column 11. Untreated control samples with (column 1) and without (column 12) inoculum were included in each microtiter plate. Depending on the bacteria type, approximately 10 to 60 CFU per well of bacteria inoculum (100 TCID50), in a volume of 100 μl in 2.8× Mueller-Hinton broth medium, was added to the rows A to H, except column 12. The same volume of broth medium without inoculum was added to column 12 in row A to H. The cultures were incubated at 37° C. for 24 hours under a normal atmosphere (incubator with open air valve and continuous ventilation). At the end of incubation, one day after inoculation, the bacterial growth was quantitated fluorometrically. Therefore resazurin (0.6 mg/ml) was added in a volume of 20 μl to all wells 3 hours after inoculation, and the plates were re-incubated overnight. A change in colour from blue to pink indicated the growth of bacteria. The fluorescence was read in a computer-controlled fluorometer (Cytofluor Biosearch) at an excitation wavelength of 530 nm and an emission wavelength of 590 nm. The % growth inhibition achieved by the compounds was calculated according to standard methods. The IC90 (expressed in μg/ml) was defined as the 90% inhibitory concentration for bacterial growth.

[2] = system: Pseudomonas aeruginosa (ATCC27853); assay: Microtitre plate assay, IC90 determination (PAE 27853); conditions: 90% inhibitory concentration for bacterial growth, 37° C., resazurin fluorescence; for IC90 PAE 27853: 24 hours; for IC90: Pseudomonas aeruginosa, ATCC27853, 24 h
Experimental: as §1, §2

[3] = system: Streptococcus pneumoniae (ATCC6305); assay: Microtitre plate assay, IC90 determination (SPN 6305); conditions: 90% inhibitory concentration for bacterial growth, 37° C., resazurin fluorescence; for IC90 SPN 6305: 24 hours; for IC90: Streptococcus pneumoniae, ATCC6305, 24 h
Experimental: as §1, §2

[4] = system: Streptococcus pyogens (ATCC8668); assay: Microtitre plate assay, IC90 determination (SPY 8668); conditions: 90% inhibitory concentration for bacterial growth, 37° C., resazurin fluorescence; for IC90 SPY 8668: 24 hours; for IC90: Streptococcus, ATCC8668, 24 h
Experimental: as §1, §2

[5] = system: Staphylococcus aureus (ATCC29213); assay: Microtitre plate assay, IC90 determination (STA 29213); conditions: 90% inhibitory concentration for bacterial growth, 37° C., resazurin fluorescence; for IC90 STA 29213: 24 hours; for IC90: Staphylococcus aureus, ATCC29213, 24 h
Experimental: as §1, §2

## COc1nc2ccc(Br)cc2cc1C(c1ccc(Cl)cc1)C(O)(CCc1cccc(F)c1)CCN(C)C (stereo not drawn) [Compound 78]
[1]
  IC90 EFA 29212: 9.3 µg/mL (≈ 15.9 µM)
[2]
  IC90 PAE 27853: 1.9 µg/mL (≈ 3.24 µM)
[3]
  IC90 SPN 6305: 1.5 µg/mL (≈ 2.56 µM)
[4]
  IC90 SPY 8668: 1.9 µg/mL (≈ 3.24 µM)
[5]
  IC90 STA 29213: 7.4 µg/mL (≈ 12.6 µM)

## COc1nc2cc(C)c(Br)cc2cc1C(c1ccccc1)C(O)(CCc1ccccc1)CCN(C)C (racemic) [Compound 16]
[1]
  IC90 EFA 29212: 10.9 µg/mL (≈ 19.9 µM)
[2]
  IC90 PAE 27853: 2.2 µg/mL (≈ 4.02 µM)
[3]
  IC90 SPN 6305: 2.2 µg/mL (≈ 4.02 µM)
[4]
  IC90 SPY 8668: 2.2 µg/mL (≈ 4.02 µM)
[5]
  IC90 STA 29213: 19.4 µg/mL (≈ 35.4 µM)

## COc1nc2ccc(Br)cc2cc1C(c1ccc(Cl)cc1)C(O)(CCc1ccc(F)cc1)CCN(C)C (stereo not drawn) [Compound 79]
[1]
  IC90: 58.6 µg/mL (≈ 100 µM)
[2]
  IC90: 46.5 µg/mL (≈ 79.4 µM)
[3]
  IC90: 2.3 µg/mL (≈ 3.93 µM)
[4]
  IC90: 46.5 µg/mL (≈ 79.4 µM)
[5]
  IC90: 9.3 µg/mL (≈ 15.9 µM)

## COc1ccccc1CCC(O)(CCN(C)C)C(c1ccc(Cl)cc1)c1cc2cc(Br)ccc2nc1OC (stereo not drawn) [Compound 88]
[1]
  IC90: 37.7 µg/mL (≈ 63 µM)
[2]
  IC90: 2.1 µg/mL (≈ 3.51 µM)
[3]
  IC90: 0.5 µg/mL (≈ 0.836 µM)
[4]
  IC90: 1.9 µg/mL (≈ 3.18 µM)
[5]
  IC90: 9.5 µg/mL (≈ 15.9 µM)

## COc1nc2ccc(Br)cc2cc1C(c1ccccc1)C(O)(CCc1ccccc1)CCN(C)C (stereo not drawn) [Compound 19]
[1]
  IC90 EFA 29212: 1.7 µg/mL (≈ 3.19 µM)
[2]
  IC90 PAE 27853: 1.7 µg/mL (≈ 3.19 µM)
[3]
  IC90 SPN 6305: 2.1 µg/mL (≈ 3.94 µM)
[4]
  IC90 SPY 8668: 1.7 µg/mL (≈ 3.19 µM)
[5]
  IC90 STA 29213: 8.5 µg/mL (≈ 15.9 µM)

## COc1nc2ccc(Br)cc2cc1C(c1ccccc1)C(O)(CCc1ccccc1)CCN(C)C (stereo not drawn) [Compound 18]
[1]
  IC90 EFA 29212: 10.6 µg/mL (≈ 19.9 µM)
[2]
  IC90 PAE 27853: 10.6 µg/mL (≈ 19.9 µM)
[3]
  IC90 SPN 6305: 2.1 µg/mL (≈ 3.94 µM)
[4]
  IC90 SPY 8668: 8.5 µg/mL (≈ 15.9 µM)
[5]
  IC90 STA 29213: 8.5 µg/mL (≈ 15.9 µM)

## COc1nc2ccc(Br)cc2cc1C(c1ccccc1)C(O)(CCc1cccc(F)c1)CCN(C)C (racemic) [Compound 48]
[1]
  IC90 EFA 29212: 43.8 µg/mL (≈ 79.4 µM)
[2]
  IC90 PAE 27853: 43.8 µg/mL (≈ 79.4 µM)
[3]
  IC90 SPN 6305: 2.2 µg/mL (≈ 3.99 µM)
[4]
  IC90 SPY 8668: 43.8 µg/mL (≈ 79.4 µM)
[5]
  IC90 STA 29213: 1.7 µg/mL (≈ 3.08 µM)

## COc1nc2ccc(Br)cc2cc1C(c1cccc(Cl)c1)C(O)(CCc1ccccc1)CCN(C)C (stereo not drawn) [Compound 68]
[1]
  IC90: 56.8 µg/mL (≈ 100 µM)
[2]
  IC90 PAE 27853: 11.3 µg/mL (≈ 19.9 µM)
[3]
  IC90 SPN 6305: 0.7 µg/mL (≈ 1.23 µM)
[4]
  IC90: 56.8 µg/mL (≈ 100 µM)
[5]
  IC90: 2.3 µg/mL (≈ 4.05 µM)

## COc1nc2ccc(Br)cc2cc1C(c1cccc(C)c1)C(O)(CCc1ccc(F)cc1)CCN(C)C (stereo not drawn) [Compound 83]
[1]
  IC90 EFA 29212: 9.0 µg/mL (≈ 15.9 µM)
[2]
  IC90 PAE 27853: 4.0 µg/mL (≈ 7.07 µM)
[3]
  IC90 SPN 6305: 0.5 µg/mL (≈ 0.884 µM)
[4]
  IC90: 1.8 µg/mL (≈ 3.18 µM)
[5]
  IC90: 1.8 µg/mL (≈ 3.18 µM)

## COc1nc2ccc(Br)cc2cc1C(c1ccccc1)C(O)(CCc1ccc(F)cc1)CCN(C)C (stereo not drawn) [Compound 28]
[1]
  IC90 EFA 29212: 3.9 µg/mL (≈ 7.07 µM)
[2]
  IC90 PAE 27853: 3.9 µg/mL (≈ 7.07 µM)
[3]
  IC90 SPN 6305: 0.9 µg/mL (≈ 1.63 µM)
[4]
  IC90 SPY 8668: 3.9 µg/mL (≈ 7.07 µM)
[5]
  IC90 STA 29213: 1.7 µg/mL (≈ 3.08 µM)

## COc1nc2ccc(Br)cc2cc1C(c1ccccc1)C(O)(CCc1cccc(OC(F)(F)F)c1)CCN(C)C (racemic) [Compound 45]
[1]
  IC90 EFA 29212: 2.2 µg/mL (≈ 3.56 µM)
[2]
  IC90 PAE 27853: 0.7 µg/mL (≈ 1.13 µM)
[3]
  IC90 SPN 6305: 0.4 µg/mL (≈ 0.648 µM)
[4]
  IC90 SPY 8668: 2.0 µg/mL (≈ 3.24 µM)
[5]
  IC90 STA 29213: 2.5 µg/mL (≈ 4.05 µM)

## COc1nc2ccc(Br)cc2cc1C(c1ccccc1)C(O)(CCc1ccc(F)cc1)CCN(C)C (stereo not drawn) [Compound 26]
[1]
  IC90 EFA 29212: 1.7 µg/mL (≈ 3.08 µM)
[2]
  IC90 PAE 27853: 1.7 µg/mL (≈ 3.08 µM)
[3]
  IC90 SPN 6305: 2.0 µg/mL (≈ 3.63 µM)
[4]
  IC90 SPY 8668: 1.7 µg/mL (≈ 3.08 µM)
[5]
  IC90 STA 29213: 4.4 µg/mL (≈ 7.98 µM)
